Measured values taken from patent US20090176798A1, “New compounds III” (Biovitrum AB, priority 2007, published 2009).

Columns and labels:
JEG-3 cells [1] = assay: [3H]-thymidine incorporation in JEG-3 cells (leptin assay in non-recombinant system); format: cell-based; details: FIG. 5
Procedure: In JEG-3 cells (choriocarcinoma cell line) leptin is able to stimulate proliferation up to 3 fold (Biol. Reprod. (2007) 76: 203-10). […] The radioactivity incorporated by the cells is an index of their proliferative activity and is measured in counts per minute (CPM) with a liquid scintillation beta counter.
This finding can be applied to test whether a compound is able to either reproduce the effect of leptin on cell proliferation (leptin receptor agonist mimetic) (i.e., a given compound will cause an increase in incorporated [^3H]-Thymidine by the cells) or to inhibit the effect of leptin (antagonistic effect) by preventing the leptin-mediated increase in [^3H]-thymidine incorporation.
This approach has the advantage of using a non-recombinant system and has reasonable reproducibility and robustness.

JEG-3 cells [2] = details: Biol. Reprod. (2007) 76: 203-10; cited from earlier work

In the case of “leptin: a hormone synthesized in fat cells that is believed to act in the hypothalamus to reduce food intake and body weight”, the EC50 (JEG-3 cells [1]; JEG-3 cells (choriocarcinoma cell line), read-out: EC50, increase in [3H]-thymidine incorporation) is given as 2.1 nM, the concentration of maximal effect on [3H]-thymidine incorporation (JEG-3 cells [1]; JEG-3 cells) is given as 100 nM and the stimulation of proliferation (JEG-3 cells [2]) is given as “up to 3 fold”.
